Test results from US8404803B2, “Cancer-associated antigen analogue peptides and uses thereof” (Chugai Seiyaku Kabushiki Kaisha, priority 2005, dated 2013).
Where “and” joins values, the source holds several entries; their conditions need not be identical. Equal values may be shown once.

Tests used:
Format in all cases: cell-based, human
[1] = system: CD4-positive/IL-4-producing T cells; experiment: Flow cytometry detection of CD4-positive/IL-4-positive T cells in peptide-stimulated mononuclear cell samples; conditions: for CD4-positive/IL-4-positive frequencies, mean ± standard deviation: epitope determination, patient's mononuclear cell samples (FIG. 14); for CD4+ IL-4+ number of positive samples/tested samples: mononuclear cell samples cultured 48 hours with peptide and IL-2; for CD4+ IL-4+ number of positive samples/tested samples / CD4+ IL-4+ number of positive samples/tested samples × 100 (%): positive sample > mean of control + 2 × SD (OVCA10-MNC group, 1.148%); for frequency of CD4-positive/IL-4-positive cells, mean±standard deviation: all the analyzed mononuclear cell samples (FIG. 8); for frequency of CD4-positive/IL-4-positive T cells: FIGS. 6 and 7, IL-2 and analogue peptide added
Experimental: (§1) All operations concerning cell culture were performed aseptically. First, human peripheral mononuclear cell fractions (comprising T cells, B cells, macrophages and such; hereinafter referred to as “mononuclear cell samples”) were prepared from the blood samples by density gradient centrifugation. Next, these mononuclear cells were suspended at 1×10^5 cell/ml in complete media having the following composition: • Complete Medium: RPMI1640 culture medium (Gibco Laboratories Inc., Grand Island, N.Y.) to which 10% fetal bovine serum (Cell Culture Laboratories, Cleveland, Ohio), 0.2 mM L-glutamine, 100 U/mL penicillin, 100 μg/mL streptomycin (Gibco Laboratories Inc.), and 0.2 ng/mL recombinant human IL-2 (Dainippon Pharmaceutical Co., Tokyo, Japan) have been mixed.
(§2) Theses mononuclear cell samples were placed still in V-bottomed 96-well tissue culture plastic plates (Flow Laboratories Inc., Horsham, Pa.) in the presence and absence of peptides, and cultured for 48 hours at 37° C. in a CO2 culture apparatus (Sanyo Medica, Osaka, Japan).
(§3) A number of mouse-derived anti-human specific monoclonal antibodies with different fluorescences (hereinafter referred to as ‘monoclonal antibodies’) were used to simultaneously analyze by double-staining the CD markers CD4 and CD8, which are on the T cell membranes, and the cytokines within the T cells. As the monoclonal antibodies, products labeled with either fluorescent substance phycoerythrin (hereinafter ‘PE’) or fluorescein isothiocyanate (hereinafter ‘FITC’) were used (Miltenyi Biotec, Glandbach, Germany). For detection, a flow cytometry apparatus FACScan (Becton Dickinson) was used to measure the frequency of cells to which the monoclonal antibodies had bound. Positive cells are automatically detected by the flow cytometry apparatus.
(§4) Since positive cells cannot be identified after the cytokines have been secreted to the outside of the cells, detection was performed at a stage where the cytokines are inside the cells. Therefore, the Cytofix/Cytoperm Kit (Pharmingen, San Diego, Calif.) was used for the analysis, using methods recommended by the manufacturer and a positive control for detection recommended by the kit (Prussin C, Metcalfe D, Detection of intracytoplasmic cytokine using flow cytometry and directly conjugated anti-cytokine antibodies, J Immunol Meth. 188: 117-128, 1995). Specifically, brefeldin A (Pharmingen, San Diego, Calif.) was added at 0.7 μl/1 ml/well to stop protein production in the Golgi apparatus, and the peptide-stimulated mononuclear cell samples were treated at 37° C. for two hours. Next, the culture plates were placed on ice and the reaction was stopped by adding physiological saline at 4° C. The mononuclear cell samples were transferred into 15 ml tubes as though by washing with the physiological saline at 4° C., and were then centrifuged at 1600 rpm for ten minutes to remove the supernatant.
(§5) First, to dye CD4s on the cell surface, 10 μl of FITC-labeled mouse anti-human CD4 was added, with CD8 monoclonal antibody as a control, and this was reacted at 4° C. for 30 minutes. The cells were then separated with 0.5% bovine serum albumin/physiological saline at 4° C., then 0.5% bovine serum albumin/physiological saline at 4° C. was added thereto, and this was centrifuged at 1600 rpm for ten minutes at 4° C. to remove the supernatant.
(§6) Next, the mononuclear cell samples were fixed and their cell membranes were permeabilized. The cells were suspended in 250 μl of Cytofix/Cytoperm (Pharmingen) solution and reacted at 4° C. for 20 minutes. 10 μl of the aforementioned fluorescently labeled anti-IFNγ monoclonal antibody or anti-IL-4 monoclonal antibody was added to these mononuclear cell samples and reacted at 4° C. for 30 minutes. Then, the cells were separated by adding 0.5% bovine serum albumin/physiological saline at 4° C., and 0.5% BSA/PBS at 4° C. was further added thereto. After centrifugation at 1600 rpm for ten minutes at 4° C., the supernatant was removed. […]

[2] = system: CD4-positive/IFNγ-producing T cells; experiment: Flow cytometry detection of CD4-positive/IFNγ-positive T cells in peptide-stimulated mononuclear cell samples; conditions: for CD4-positive/IFNγ expression-positive frequencies, mean ± standard deviation: epitope determination, patient's mononuclear cell samples (FIG. 16); for CD4+ IFNγ+ number of positive samples/tested samples: mononuclear cell samples cultured 48 hours with peptide and IL-2; for CD4+ IFNγ+ number of positive samples/tested samples / CD4+ IFNγ+ number of positive samples/tested samples × 100 (%): positive sample > mean of control + 2 × SD (OVCA10-MNC group, 1.378%); for frequency of CD4-positive/INFγ-positive cells, mean±standard deviation: all of the analyzed mononuclear cell samples (FIG. 11); for frequency of CD4-positive/IFNγ-positive T cells: FIGS. 9 and 10, IL-2 and analogue peptide added
Experimental: as §1, §2, §3, §4, §5, §6

CD4-positive T cells = experiment: Analysis of the CD4-positive T cell epitope (T cells positive for IL-4 or IFNγ); conditions: peptides with ten amino acid residues reproducing the MUC16 primary sequence
Experimental: The results were recorded as: number of double staining-positive cells/total number of counted mononuclear cells ×100=positive cell frequency (%). Furthermore, peptide antigen-specific T cell reactions were determined to be positive when the individual frequencies of positive cells in the mononuclear cell samples were the same as or greater than the mean plus two standard deviations (mean+2SD) of the negative control group, where the negative control was a mononuclear cell sample group that had been stimulated with analogue peptide (OVCA10 stimulation). In addition, each of the peptide-stimulated groups were compared by using t-tests to measure the significant difference.
Next, to determine the T cell epitope (based not on the analogues but on the original sequence), the present inventors went back to the original amino acid sequence of the 11-times repeat sequences of MUC16 from which the 30 amino acid residue sequence: […] (SEQ ID NO: 45) common to OVCA11 and OVCA12 was derived. Furthermore, the sequence was divided into lots of ten amino acid residues to prepare OVCA101 (SEQ ID NO: 4), 102 (SEQ ID NO: 5), 103 (SEQ ID NO: 6), 104 (SEQ ID NO: 7), 105 (SEQ ID NO: 8), 106 (SEQ ID NO: 9), 107 (SEQ ID NO: 2), 108 (SEQ ID NO: 3), 109, 110, 111, 112, 113, 114, 115 (SEQ ID NO: 10) (FIG. 5), and T cells positive for IL-4 or IFNγ were detected using a method similar to the above.

[3] = typical example of flow cytometry

Sequence | CD4-positive/IL-4-positive frequencies, mean ± standard deviation ([1]; peptide 15 μM) [%] | CD4+ IL-4+ number of positive samples/tested samples [1] | CD4+ IL-4+ number of positive samples/tested samples × 100 (%) [1] [%] | CD4-positive/IFNγ expression-positive frequencies, mean ± standard deviation ([2]; peptide 15 μM) [%] | CD4+ IFNγ+ number of positive samples/tested samples [2] | CD4+ IFNγ+ number of positive samples/tested samples × 100 (%) [2] [%] | frequency of CD4-positive/IL-4-producing T cells compared to groups to which OVCA10 was added ([1]; FIG. 8, peptide 15 μM, statistically significant difference) | frequency of CD4-positive/IL-4-positive cells, mean±standard deviation ([1]; peptide 15 μM) [%] | frequency of CD4-positive/IL-4-positive T cells [1, 3] [%] | frequency of CD4-positive/IFNγ-producing T cells compared to groups to which OVCA10 was added ([2]; FIG. 11, peptide 15 μM, statistically significant difference) | frequency of CD4-positive/INFγ-positive cells, mean±standard deviation ([2]; peptide 15 μM) [%] | frequency of CD4-positive/IFNγ-positive T cells [2, 3] [%] | frequency of CD4-positive/IL-4-producing T cells at the time of epitope determination ([1]; FIG. 14, peptide 15 μM) | frequency of CD4-positive/IL-4-positive T cells at the time of epitope determination ([1]; typical example of flow cytometry, FIG. 13, IL-2 and peptide added) [%] | frequency of CD4-positive/IFNγ-producing T cells at the time of epitope determination ([2]; FIG. 16, peptide 15 μM) | frequency of CD4-positive/IFNγ-positive T cells at the time of epitope determination ([2]; typical example of flow cytometry, FIG. 15, IL-2 and peptide added) [%] | recognized by CD4-positive T cells (CD4-positive T cells)
GHTAPGPLLV (listed as Homo sapiens) [OVCA102] | 0.231±0.309 | 0/14 | 0 | 0.532±0.545 | 1/14 | 7.1 | – | – | – | – | – | – | – | – | – | – | –
LRYEENMRHPGSRKFNTTER (listed as Homo sapiens) [OVCA13] | – | 0/6 | 0 | – | 0/6 | 0 | – | – | – | – | – | – | – | – | – | – | –
ETTATGPLLV (listed as Homo sapiens) [OVCA104] | 0.301±0.340 | 0/14 | 0 | 0.376±0.490 | 1/14 | 7.1 | – | – | – | – | – | – | – | – | – | – | –
PFTLNFTITNLRYEENMRHP (listed as Homo sapiens) [OVCA12] | – | 18 of the 33 and 18/33 | 54.5 | – | 13 of the 33 and 13/33 | 39.4 | higher | 5.263±9.059 | 0.57 | higher | 5.071±10.315 | 0.28 | – | – | – | – | –
STPGTSTVHLGTSGTPASLP (listed as Homo sapiens) [OVCA9] | – | 0/29 | 0 | – | 2/29 | 6.9 | – | – | 0.05 | – | – | 0.02 | – | – | – | – | –
GPSAASPLLV (listed as Homo sapiens) [OVCA106] | 0.649±1.337 | 2/14 | 14.3 | 0.641±1.082 | 2/14 | 14.3 | – | – | – | – | – | – | – | – | – | – | –
RPIVPGPLLV (listed as Homo sapiens) [OVCA103] | 0.211±0.269 | 0/14 | 0 | 0.331±0.467 | 1/14 | 7.1 | – | – | – | – | – | – | – | – | – | – | –
LRYEENMRHP (listed as Homo sapiens) [OVCA115] | 0.281±0.424 | 1/9 | 11.1 | 0.161±0.157 | 0/8 | 0 | – | – | – | – | – | – | – | – | – | – | –
GTSGTPASLPGHTAPGPLLV (listed as Homo sapiens) [OVCA10] | – | 1/33 | 3.0 | – | 1/33 | 3.0 | – | 0.252±0.448 | 0.05 | – | 0.328±0.525 | 0.11 | – | – | – | – | –
LFTLNPTITN [OVCA108] | 6.471±13.319 | 5/9 | 55.6 | 8.963±19.939 | 2/8 | 25.0 | – | – | – | – | – | – | High frequency cases could be detected | 1.17 | High frequency cases could be detected | 1.27 | recognized by CD4-positive T cells
GPTTASPLLV (listed as Homo sapiens) [OVCA105] | 0.243±0.358 | 1/14 | 0 | 0.379±0.497 | 1/14 | 7.1 | – | – | – | – | – | – | – | – | – | – | –
GHTAPVPLLI (listed as Homo sapiens) [OVCA101] | 0.181±0.231 | 0/14 | 0 | 0.471±0.562 | 2/14 | 14.3 | – | – | – | – | – | – | – | – | – | – | –
